Measurements published in patent US20080207708A1, “Oxazole and Thiazole Compounds and Their Use in the Treatment of Pge2 Mediated Disorders” (GLAXO GROUP LIMITED, priority 2005, published 2008).
Where a name gives a salt, the structure may show the parent alone. Blank lines part the entries; values can stand above or below the compound they belong to.

Columns and labels:
gastric lesions in rats = settings: lesions induced by taurocholate acid, aspirin or indomethacin, J. Pharmacol. Exp. Ther. 1992, 263(1), 374-380; cited from earlier work
EP1 receptors [1] = target: T1, EP1 receptors (Homo sapiens, UniProt P34995); test: human EP1 calcium mobilisation assay (CHO-K1 cells, FLIPR, PGE2); type: cell-based; parameters: expressed in transfected cells; host or cells: CHO-K1 cells, pCIN vector; settings: free bases or sodium salts; averages of a number of experiments; read-out: functional pKi value, human EP1 calcium mobilisation assay (converted)
T1 sequence (P34995 1-402): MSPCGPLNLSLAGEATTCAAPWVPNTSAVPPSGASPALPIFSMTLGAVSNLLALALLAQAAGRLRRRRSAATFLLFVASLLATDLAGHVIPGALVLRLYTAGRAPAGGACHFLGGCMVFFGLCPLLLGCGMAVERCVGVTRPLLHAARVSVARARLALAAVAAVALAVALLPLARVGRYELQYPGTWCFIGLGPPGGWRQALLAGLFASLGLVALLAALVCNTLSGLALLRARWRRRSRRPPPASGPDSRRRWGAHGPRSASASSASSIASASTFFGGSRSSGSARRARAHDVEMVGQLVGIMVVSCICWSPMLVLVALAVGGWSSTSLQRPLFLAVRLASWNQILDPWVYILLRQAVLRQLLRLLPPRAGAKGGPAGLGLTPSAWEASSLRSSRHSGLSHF
How it was run: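 CHO-K1 cells stably transfected with human EP1 cDNA, loaded with Fluo-4 AM after 24 h culture at 37° C. Compounds added first, then PGE2; antagonism read as inhibition of PGE2-induced intracellular calcium rise on FLIPR. pIC50 taken as concentration giving half-maximal inhibition, from curve fitting.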

EP1 receptors [2] = target: T1, EP1 receptors; test: Binding assay for the human prostanoid EP1 receptor (competition with [3H]-PGE2); parameters: expressed in transfected cells; host or cells: CHO-K1 cells, membrane fraction; settings: [3H]-PGE2 competition; averages of a number of experiments; read-out: pIC50 value, binding assay for the human prostanoid EP1 receptor (converted)
How it was run: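 Membranes from CHO-K1 cells stably expressing human EP1 incubated with compounds and [3H]-PGE2 (3 nM final) for 30 min at 30° C in MES buffer with EDTA and MgCl2, pH 6. Bound radioactivity measured after filtration; IC50 from nonlinear fit of specific binding inhibition.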

[3] = test system: rat model of chronic constriction injury; settings: Anesthesia and Analgesia 2001, 93, 1012-7; cited from earlier work
[4] = test system: rodent model of post-operative pain; settings: Anesthesia and Analgesia 2001, 92, 233-238; cited from earlier work

SMILES: O=C(O)Cc1ccc(CCNS(=O)(=O)c2ccc(Cl)cc2)cc1 [BM 13505]
- gastric lesions (gastric lesions in rats): inhibit gastric lesions

SMILES: CC(C)COc1ccc(Cl)cc1Nc1nc(-c2nc3ccc(CN4CCCCC4)cc3[nH]2)cs1 [Example 182, N-{5-Chloro-2-[(2-methylpropyl)oxy]phenyl}-4-[5-(1-piperidinylmethyl)-1H-benzimidazol-2-yl]-1,3-thiazol-2-amine]
- Ki (EP1 receptors [1]): > 1 µM
- IC50 (EP1 receptors [2]): ≤ 1 µM

SMILES: Cc1cc(Cl)ccc1S(=O)(=O)NC[C@H]1C2CCC(CC2)[C@@H]1/C=C\CCCC(=O)O [ONO-8711]
- hyperalgesia and allodynia [3]: reduces hyperalgesia and allodynia
- mechanical hyperalgesia [4]: inhibits mechanical hyperalgesia

SMILES: O=C(O)CCc1ccccc1CC1C2CCC(O2)C1c1nc(C(=O)NCCCCC2CCCCC2)co1 (centres unmarked) [SQ 33961]
- gastric lesions (gastric lesions in rats): inhibit gastric lesions

Second part, the compound after the results:

- Ki (EP1 receptors [1]): > 1 µM
- IC50 (EP1 receptors [2]): ≤ 0.0316 µM
SMILES: CNCc1ccc2nc(-c3csc(Nc4cc(Cl)ccc4OCC(C)C)n3)[nH]c2c1 [Example 179, N-{5-Chloro-2-[2-methylpropyl)oxy]phenyl}-4-{5-[(methylamino)methyl]-1H-benzimidazol-2-yl}-1,3-thiazol-2-amine hydrochloride]

- Ki (EP1 receptors [1]): > 1 µM
- IC50 (EP1 receptors [2]): ≤ 0.0316 µM
SMILES: CC(C)COc1ccc(Cl)cc1Nc1nc(-c2nc3ccc(CN(C)C)cc3[nH]2)cs1 [Example 180, N-{5-Chloro-2-[(2-methylpropyl)oxy]phenyl}-4-{5-[(dimethylamino)methyl]-1H-benzimidazol-2-yl}-1,3-thiazol-2-aminehydrochloride]

- Ki (EP1 receptors [1]): > 1 µM
- IC50 (EP1 receptors [2]): ≤ 1 µM
SMILES: CC(C)COc1ccc(Cl)cc1Nc1nc(-c2nc3ccc(CN4CCCC4)cc3[nH]2)cs1 [Example 181, N-{5-Chloro-2-[(2-methylpropyl)oxy]phenyl)-4-[5-(1-pyrrolidinylmethyl)-1H-benzimidazol-2-yl]-1,3-thiazol-2-amine]

- Ki (EP1 receptors [1]): < 1 µM
- IC50 (EP1 receptors [2]): ≤ 0.0316 µM
SMILES: CC(C)COc1ccc(Cl)cc1Nc1nc(-c2nc3ccc(CN4CCN(C)CC4)cc3[nH]2)cs1 [Example 183, N-{5-Chloro-2-[(2-methylpropyl)oxy]phenyl}-4-{5-[(4-methyl-1-piperazinyl)methyl]-1H-benzimidazol-2-yl}-1,3-thiazol-2-amine]
